{"source": "patent US10206997B2", "about": "“Facilitator-DNA combination vaccine” (priority 2011, dated 2019)", "key": {"CD8+ T effectors": {"system": "CD8+ T effectors", "assay": "Multi-color flow cytometry of CD8+ T effectors (IFN-γ, perforin, granzyme B)", "format": "in vivo, mice", "conditions": "HBsAg restimulation", "procedure": "(§1) 4 h later, both inguinal lymph nodes were collected.\nWith respect to multi-color flow cytometry, a multi-color panel was set up with anti-CD3, anti-CD8, anti-IFN-γ, anti-perforin and anti-granzyme B. After restimulation in vitro by sAg for 24 h or S208-215 for 12 h, following monensin block for 6 h, splenocyte was fixed, penetrated and stained. Data was collected with BD Aria and analyzed with Flowjo (Tree Star, Ashland, USA)."}, "[1]": {"system": "Cy5-plasmid+ cells in lymph nodes", "assay": "Cy5-pEGFP plasmid entry in vivo, Cy5+ cells in draining lymph nodes by FACS", "set-up": "species or system C57B/6 mice", "conditions": "hind footpad, 4 hrs", "procedure": "as §1"}, "[2]": {"system": "RAW264.7, JAWSII and DC2.4 cell lines", "assay": "Cy5-pEGFP plasmid entry and expression in antigen presenting cell lines", "format": "cell-based", "procedure": "(§2) With respect to cell culture and inhibiter treatment, RAW264.7 and DC2.4 were cultured in DMEM/10% FCS, and JAWSII was cultured in DMEM/10% FCS with GMCSF (1000 U/ml, Peprotech, USA). Amiloride (Sigma-Aldrich, USA) was prepared as 10 mM solution and was diluted to 1 mM, 100 uM, 10 uM in DMEM medium before treatment. After culture medium was removed, cells were treated with amiloride, MβCD (5 mM, Sigma) or Fillipin (10 ng/ml, sigma) at 37° C. for 1 h. LPS (10 ng/ml, sigma) or 10 ng/ml DNA in DMEM was added at 37° C. for 0.5 h, after wash, culture medium was added and cells were cultured.\nWith respect to plasmid preparation and fluorescence conjugation, pEGFP (Clontech, USA) and pcD-S2 plasmid were prepared from DH5a culture, purified by EndoFree Plasmid Maxi Kit (Qiagen, Germany) and endotoxin was below 10 EU/mg by LAL test. Cy5 was conjugated to plasmid with Minis Label IT Kit (Minis, USA) as manual instructed."}, "[3]": {"system": "CD8 T cells co-cultured with peritoneal macrophages or spleen dendritic cells", "assay": "Co-culture of treated APCs with purified CD8 T cells", "format": "cell-based, mice", "conditions": "macrophages and DCs co-culture; pcD-S2 with vs without amiloride", "procedure": "With respect to co-cultures, pcD-S2 (10 μg/ml) with or without 100 μM amiloride treat APCs, peritoneal macrophage or spleen dendritic cell, were cultured for 2 days. At day 3, purified CD8 T cell (R&D systems, USA) was added into culture with APC:T ratio of 1:5, 1:2, 1:1. At day 8, cells were collected and restimulated with S208-215 (10 μg/ml). PMA+Ionomycin was added as positive control for restimulation."}, "HBsAg": {"system": "HBsAg", "assay": "Antibody against HBsAg after footpad immunization", "format": "in vivo, C57B/6 mice"}, "RAW264.7": {"system": "RAW264.7", "assay": "APC maturation markers and innate cytokine secretion with pcD-S2", "format": "cell-based", "conditions": "pcD-S2 with vs without amiloride", "procedure": "as §2"}}}
{"compound": "N=C(N)NC(=O)c1nc(Cl)c(N)nc1N", "note": "[amiloride]", "values": [{"measurement": "triple positive cells in HBsAg stimulated CD8 response", "setting": "CD8+ T effectors", "value": "triple positive cells could also be observed"}, {"measurement": "percentage of Cy5-plasmid+ cells in lymph nodes (LN)", "setting": "[1]; 10 μM amiloride", "value": "increased"}, {"measurement": "percentage of Cy5-plasmid+ cells in lymph nodes (LN)", "setting": "[1]; 100 μM amiloride", "value": "peaked"}, {"measurement": "percentage of Cy5-plasmid+ cells in lymph nodes (LN)", "setting": "[1]; 1 mM amiloride", "value": "decreased"}, {"measurement": "GFP expression", "setting": "[2]; 1 mM amiloride pre-treatment, after 3 days culture, vs un-treated cells", "value": "significantly higher level of GFP"}, {"measurement": "GFP expression relative to liposome treated cells", "setting": "[2]; 1 mM amiloride, 3 days", "value": "comparable with that of liposome treated cells"}, {"measurement": "uptake of Cy5-labeled pEGFP plasmids", "setting": "[2]; pre-treated with 1 mM amiloride for 1 h, within 2 hrs, vs un-treated cells", "value": "significantly taken up"}, {"measurement": "percentage of S208-215 specific triple positive CD8 T effectors", "setting": "[3]", "value": "significantly increased"}, {"measurement": "most effective dose of amiloride for in vivo treatment", "setting": "HBsAg; antibody and DTH experiments", "value": 1, "unit": "mM"}, {"measurement": "levels of antibody against HBsAg", "setting": "HBsAg; footpad immunization, vs pcD-S2 alone, dose dependent", "value": "increased"}, {"measurement": "expression of TNF and IFN-γ", "setting": "RAW264.7; RAW264.7", "value": "higher levels of expression of TNF and IFN-γ"}, {"measurement": "expression of maturation markers CD40, CD80 and CD86", "setting": "RAW264.7; RAW264.7 in vitro", "value": "higher levels of expression of CD40, CD80 and CD86"}]}
